Common to all, as to format: physicochemical
Data set [1] can be described thus: solubility at different pH values. The text has this:
Table 1 gives an overview of the solubility of anhydrous dasatinib ("N-6") and dasatinib monohydrate ("H1-7") at different pH values. Table 1: solubility of anhydrous dasatinib ("N-6") and dasatinib monohydrate ("H1-7")

The nature of data set [2]: form conversion during wet granulation in water. Conditions: during the process of granulation in water.
Protocol: The wet granulation process is performed with a granulation solvent selected from the group consisting of water, acetone, ethanol, isopropanol or a mixture thereof.
The nature of data set [3]: stability of tablets stored at 40°C/75% RH (assay and impurities). Conditions: triacetin used as plasticizer in the coating formulation. The text has this:
The intragranular components were blended with water in a high shear mixer. The resulting granulate was dried in a fluid bed dryer. The granulate was sieved through an appropriate mesh size sieve. Microcrystalline cellulose and croscarmellose sodium were sieved through a suitable mesh size sieve for deagglomeration. The excipients were mixed with the sieved granulate in a diffusion mixer. Magnesium stearate was sieved through an appropriate sieve to deagglomerate and mixed with the powder mix in a diffusion mixer. The homogeneous powder obtained, was compressed using a rotating tablet press using appropriate punches. Part of the tablets were coated with a water suspension of Opadry® II White 31K28459 coating until 3% weight gain (= […]). The tablets were packed in suitable packaging material and were stored at 40°C/75% RH.
Hydroxypropyl cellulose was dissolved in water and blended with the other intragranular components in a high shear mixer. The resulting granulate was dried in a fluid bed dryer. The granulate was sieved through an appropriate mesh size sieve. Microcrystalline cellulose and croscarmellose sodium were sieved through a suitable mesh size sieve for deagglomeration. The excipients were mixed with the sieved granulate in a tumbling mixer. […]

Converted amounts (≈) assume the structure as drawn. Where two headings read alike, the source gives them in different places.

In general, solubility refers to how much of the substance goes into solution per volume.

Consider `Cc1nc(Nc2ncc(C(=O)Nc3c(C)cccc3Cl)s2)cc(N2CCN(CCO)CC2)n1` [Dasatinib monohydrate ("H1-7"), N-(2-chloro-6-methylphenyl)-2-[[6-[4-(2-hydroxyethyl)-1-piperazinyl]-2-methyl-4-pyrimidinyl]amino]-5-thiazolecarboxamide], for which the solubility in data set [1] (pH 1.2) is 2850 µg/mL; in data set [1] (pH 1.2, listed as dasatinib monohydrate "H1-7"), 2850 µg/mL; in data set [1] (pH 4.5), 134 µg/mL; in data set [1] (pH 6.8), 0.6 µg/mL.
For the compound `Cc1nc(Nc2ncc(C(=O)Nc3c(C)cccc3Cl)s2)cc(N2CCN(CCO)CC2)n1` [Anhydrous dasatinib ("N-6"), N-(2-chloro-6-methylphenyl)-2-[[6-[4-(2-hydroxyethyl)-1-piperazinyl]-2-methyl-4-pyrimidinyl]amino]-5-thiazolecarboxamide], the “conversion into dasatinib monohydrate” value in data set [2] is “does not convert into dasatinib monohydrate”. Besides, the solubility in data set [1] (pH 1.2) was 34510 µg/mL (≈ 70700 µM); in data set [1] (pH 1.2, listed as anhydrous form "N-6"), 34510 µg/mL (≈ 70700 µM); in data set [1] (pH 4.5, aqueous buffer, pH 4.5, read-out: solubility), 179 µg/mL (≈ 367 µM); in data set [1] (pH 6.8), 1.8 µg/mL (≈ 3.69 µM). Besides, the “reaction with the organic ester triacetin” value in data set [3] is listed as “does not react”.

For the origin of these results see EP3389640B1, “PHARMACEUTICAL COMPOSITION COMPRISING ANHYDROUS DASATINIB” (Synthon B.V., priority 2015, dated 2017).
